This note sets out measurements from patent publication US12509444B2, “Compounds and methods for CD73 modulation and indications therefor” (Plexxikon Inc., priority 2019, dated 2025).

Assay [1] deals with T1, Human CD73 (amino acid residues 27-549) (Homo sapiens, UniProt P21589).
T1 construct: Human CD73 (amino acid residues 27-549); His tag (N); made in house; host or cells: E. coli
T1 sequence (P21589 27-549): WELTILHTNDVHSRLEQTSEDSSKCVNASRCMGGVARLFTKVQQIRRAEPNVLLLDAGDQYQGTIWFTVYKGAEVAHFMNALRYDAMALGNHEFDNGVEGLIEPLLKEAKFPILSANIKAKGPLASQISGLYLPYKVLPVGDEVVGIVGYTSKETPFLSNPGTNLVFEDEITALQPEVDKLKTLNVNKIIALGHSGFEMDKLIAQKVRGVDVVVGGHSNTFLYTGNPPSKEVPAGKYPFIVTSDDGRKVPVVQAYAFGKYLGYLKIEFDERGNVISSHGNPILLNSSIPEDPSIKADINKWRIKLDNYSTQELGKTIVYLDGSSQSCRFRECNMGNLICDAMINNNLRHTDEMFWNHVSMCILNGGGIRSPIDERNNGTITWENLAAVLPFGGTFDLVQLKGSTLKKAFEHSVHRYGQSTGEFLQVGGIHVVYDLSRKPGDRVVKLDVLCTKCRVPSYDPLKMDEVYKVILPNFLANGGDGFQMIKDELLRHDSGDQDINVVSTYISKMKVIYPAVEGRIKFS
In words: CD73 enzymatic assay (luciferase-based indirect assay, CellTiter-Glo). It counts as biochemical. As to conditions: 0.4 nM CD73, 150 μM AMP, 1 hour at room temperature. Put shortly:
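His-tagged human CD73 (27-549) from E. coli, 0.4 nM, with 150 μM AMP in 50 mM HEPES pH 7.4, 0.01% Tween 20; 1 h at room temperature. AMP remaining read by CellTiter-Glo 2.0 luminescence with 1 μM final ATP after 30 min. IC50 from nonlinear regression of % inhibition.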
Background: Cellular ATP, detected with luciferase, serves as a proxy for viable cell number.

For assay [2], the target named is T2, human CD73 (Homo sapiens, UniProt P21589).
T2 construct: expressed in transfected cells
T2 sequence (P21589 27-549): T1 sequence (P21589 27-549)
Description: Inhibitor activity against CD73 in cell based assay (CD73 expressing CHO-K1 cells). As to conditions: CHO-K1 cells expressing human CD73, 150 μM AMP, 4 hours of incubation; read-out: CHO-K1 CELL VARIANT: CD73 IC50. Put shortly:
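Stably transfected CHO-K1 cells expressing human CD73 (1×10^4/well) incubated 4 h with compound (8-point 1:3 titration, top 10 μM final, 0.2% DMSO) and 150 μM AMP. Residual AMP in supernatant measured by CellTiter-Glo luminescence with 1 μM ATP after 30 min at room temperature; IC50 by nonlinear regression of percent inhibition vs high/low controls.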

Each structure is given as a SMILES string.

For orientation: IC50 means the concentration at which inhibition is half-maximal. Take `O=C(NC1CCN(C(=O)Nc2cc(F)ccc2F)CC1)O[C@@H]1CCN(c2cn[nH]c(=O)c2Cl)C1` [P-0491, (R)-1-(5-chloro-6-oxo-1,6-dihydropyridazin-4-yl)pyrrolidin-3-yl (1-((2,5-difluorophenyl)carbamoyl)piperidin-4-yl)carbamate]: the half-inhibitory concentration (IC50) in assay [1] and in assay [2] was 0.001 to 10 µM throughout.
As to `O=C(NC1CCN(C(=O)Nc2ccc(OC(F)(F)F)cc2)CC1)O[C@@H]1CCN(c2cn[nH]c(=O)c2Cl)C1` [P-0492, (R)-1-(5-chloro-6-oxo-1,6-dihydropyridazin-4-yl)pyrrolidin-3-yl (1-((4-(trifluoromethoxy)phenyl)carbamoyl)piperidin-4-yl) carbamate], the IC50 in assay [1] and in assay [2] was 0.001 to 10 µM each time.
For `O=C(NC1CCN(C(=O)Nc2cccc(OC(F)F)c2)CC1)O[C@@H]1CCN(c2cn[nH]c(=O)c2Cl)C1` [P-0493, (R)-1-(5-chloro-6-oxo-1,6-dihydropyridazin-4-yl)pyrrolidin-3-yl (1-((3-(difluoromethoxy)phenyl)carbamoyl)piperidin-4-yl) carbamate], the half-inhibitory concentration (IC50) in assay [1] and in assay [2] was 0.001 to 10 µM in each case.
Consider `O=C(NC1CCN(C(=O)Nc2ccccc2Cl)CC1)O[C@@H]1CCN(c2cn[nH]c(=O)c2Cl)C1` [P-0494, (R)-1-(5-chloro-6-oxo-1,6-dihydropyridazin-4-yl)pyrrolidin-3-yl (1-((2-chlorophenyl)carbamoyl)piperidin-4-yl)carbamate], for which the IC50 in assay [1] and in assay [2] was 0.001 to 10 µM throughout.
Take `O=C(NC1CCN(C(=O)Nc2cc(Cl)cc(Cl)c2)CC1)O[C@@H]1CCN(c2cn[nH]c(=O)c2Cl)C1` [P-0495, (R)-1-(5-chloro-6-oxo-1,6-dihydropyridazin-4-yl)pyrrolidin-3-yl (1-((3,5-dichlorophenyl)carbamoyl)piperidin-4-yl)carbamate]: the IC50 in assay [1] and in assay [2] was 0.001 to 10 µM each time.
As to `N#Cc1c(N2CC[C@@H](OC(=O)NC3CCCC3)C2)cnn(CCO)c1=O` [P-0496, (R)-1-(5-cyano-1-(2-hydroxyethyl)-6-oxo-1,6-dihydropyridazin-4-yl)pyrrolidin-3-yl cyclopentylcarbamate], the IC50 in assay [1] and in assay [2] was 0.001 to 10 µM throughout.
On to `N#Cc1c(N2CC[C@@H](OC(=O)NC3CCC(F)(F)CC3)C2)cnn(CCO)c1=O` [P-0497, (R)-1-(5-cyano-1-(2-hydroxyethyl)-6-oxo-1,6-dihydropyridazin-4-yl)pyrrolidin-3-yl (4,4-difluorocyclohexyl)carbamate], for which the IC50 in assay [1] and in assay [2] was 0.001 to 10 µM each time.
As for `Cc1onc(C(=O)N2CCC(NC(=O)O[C@@H]3CCN(c4cn[nH]c(=O)c4Cl)C3)CC2)c1C` [P-0498, (R)-1-(5-chloro-6-oxo-1,6-dihydropyridazin-4-yl)pyrrolidin-3-yl (1-(4,5-dimethylisoxazole-3-carbonyl)piperidin-4-yl)carbamate], the 50% inhibitory concentration (IC50) in assay [1] and in assay [2] was 0.001 to 10 µM throughout.
On to `Cc1cc(C(=O)N2CCC(NC(=O)O[C@@H]3CCN(c4cn[nH]c(=O)c4Cl)C3)CC2)no1` [P-0499, (R)-1-(5-chloro-6-oxo-1,6-dihydropyridazin-4-yl)pyrrolidin-3-yl (1-(5-methylisoxazole-3-carbonyl)piperidin-4-yl)carbamate], for which the IC50 in assay [1] and in assay [2] was 0.001 to 10 µM in each case.
For the molecule `Cc1nc(C)c(C(=O)N2CCC(NC(=O)O[C@@H]3CCN(c4cn[nH]c(=O)c4Cl)C3)CC2)o1` [P-0500, (R)-1-(5-chloro-6-oxo-1,6-dihydropyridazin-4-yl)pyrrolidin-3-yl (1-(2,4-dimethyloxazole-5-carbonyl)piperidin-4-yl)carbamate], the IC50 in assay [1] and in assay [2] was 0.001 to 10 µM each time.
Turning to `Cc1nc(C(=O)N2CCC(NC(=O)O[C@@H]3CCN(c4cn[nH]c(=O)c4Cl)C3)CC2)cs1` [P-0501, (R)-1-(5-chloro-6-oxo-1,6-dihydropyridazin-4-yl)pyrrolidin-3-yl (1-(2-methylthiazole-4-carbonyl)piperidin-4-yl)carbamate], the IC50 in assay [1] and in assay [2] was 0.001 to 10 µM each time.
Turning to `Cc1occc1C(=O)N1CCC(NC(=O)O[C@@H]2CCN(c3cn[nH]c(=O)c3Cl)C2)CC1` [P-0502, (R)-1-(5-chloro-6-oxo-1,6-dihydropyridazin-4-yl)pyrrolidin-3-yl (1-(2-methylfuran-3-carbonyl)piperidin-4-yl)carbamate], the IC50 in assay [1] and in assay [2] was 0.001 to 10 µM throughout.
Turning to `Cc1ncoc1C(=O)N1CCC(NC(=O)O[C@@H]2CCN(c3cn[nH]c(=O)c3Cl)C2)CC1` [P-0503, (R)-1-(5-chloro-6-oxo-1,6-dihydropyridazin-4-yl)pyrrolidin-3-yl (1-(4-methyloxazole-5-carbonyl)piperidin-4-yl)carbamate], the IC50 in assay [1] and in assay [2] was 0.001 to 10 µM throughout.
In the case of `Cc1noc(C)c1C(=O)N1CCC(NC(=O)O[C@@H]2CCN(c3cn[nH]c(=O)c3Cl)C2)CC1` [P-0504, (R)-1-(5-chloro-6-oxo-1,6-dihydropyridazin-4-yl)pyrrolidin-3-yl (1-(3,5-dimethylisoxazole-4-carbonyl)piperidin-4-yl)carbamate], the IC50 in assay [1] and in assay [2] was 0.001 to 10 µM each time.
With `Cc1nonc1C(=O)N1CCC(NC(=O)O[C@@H]2CCN(c3cn[nH]c(=O)c3Cl)C2)CC1` [P-0505, (R)-1-(5-chloro-6-oxo-1,6-dihydropyridazin-4-yl)pyrrolidin-3-yl (1-(4-methyl-1,2,5-oxadiazole-3-carbonyl)piperidin-4-yl)carbamate], the half-maximal inhibitory concentration (IC50) in assay [1] and in assay [2] was 0.001 to 10 µM in each case.
In the case of `O=C(NC1CCCC(F)(F)C1)O[C@H]1CN(c2cn[nH]c(=O)c2Cl)C[C@@H]1F` (stereo partly drawn) [P-0506, (3S,4S)-1-(5-chloro-6-oxo-1,6-dihydropyridazin-4-yl)-4-fluoropyrrolidin-3-yl (3,3-difluorocyclohexyl)carbamate], the IC50 in assay [1] and in assay [2] was 0.001 to 10 µM in each case.
For the molecule `O=C(NC1CCCC(F)(F)C1)O[C@H]1CN(c2cnn(CCO)c(=O)c2Cl)C[C@@H]1F` (stereo partly drawn) [P-0507, (3S,4S)-1-(5-chloro-1-(2-hydroxyethyl)-6-oxo-1,6-dihydropyridazin-4-yl)-4-fluoropyrrolidin-3-yl (3,3-difluorocyclohexyl)carbamate], the IC50 in assay [1] and in assay [2] was 0.001 to 10 µM throughout.
On to `O=C(N[C@@H]1CCC[C@H]1CO)O[C@@H]1CCN(c2cn[nH]c(=O)c2Cl)C1` [P-0508, (R)-1-(5-chloro-6-oxo-1,6-dihydropyridazin-4-yl)pyrrolidin-3-yl ((1R,2R)-2-(hydroxymethyl)cyclopentyl) carbamate], for which the half-inhibitory concentration (IC50) in assay [1] and in assay [2] was 0.001 to 10 µM each time.
As to `O=C(N[C@@H]1CCC[C@H]1C(F)F)O[C@@H]1CCN(c2cn[nH]c(=O)c2Cl)C1` [P-0509, (R)-1-(5-chloro-6-oxo-1,6-dihydropyridazin-4-yl)pyrrolidin-3-yl ((1R,2R)-2-(difluoromethyl)cyclopentyl) carbamate], the IC50 in assay [1] and in assay [2] was 0.001 to 10 µM throughout.
Regarding `CC(F)(F)[C@@H]1CCC[C@H]1NC(=O)O[C@@H]1CCN(c2cn[nH]c(=O)c2Cl)C1` [P-0510, (R)-1-(5-chloro-6-oxo-1,6-dihydropyridazin-4-yl)pyrrolidin-3-yl ((1R,2R)-2-(1,1-difluoroethyl)cyclopentyl) carbamate], the IC50 in assay [1] and in assay [2] was 0.001 to 10 µM each time.
On to `O=C(N[C@H]1CCCC(F)(F)C1)O[C@@H]1CCN(c2cn[nH]c(=O)c2Cl)C1` [P-0511, (R)-1-(5-chloro-6-oxo-1,6-dihydropyridazin-4-yl)pyrrolidin-3-yl ((S)-3,3-difluorocyclohexyl)carbamate], for which the IC50 in assay [1] and in assay [2] was 0.001 to 10 µM in each case.
Consider `O=C(N[C@@H]1CCCC(F)(F)C1)O[C@@H]1CCN(c2cn[nH]c(=O)c2Cl)C1` [P-0512, (R)-1-(5-chloro-6-oxo-1,6-dihydropyridazin-4-yl)pyrrolidin-3-yl ((R)-3,3-difluorocyclohexyl)carbamate], for which the IC50 in assay [1] and in assay [2] was 0.001 to 10 µM each time.
Take `O=C(N[C@@H]1CCCC(F)(F)C1)O[C@@H]1CCN(c2cnn(CCO)c(=O)c2Cl)C1` [P-0513, (R)-1-(5-chloro-1-(2-hydroxyethyl)-6-oxo-1,6-dihydropyridazin-4-yl)pyrrolidin-3-yl ((R)-3,3-difluorocyclohexyl)carbamate]: the IC50 in assay [1] and in assay [2] was 0.001 to 10 µM throughout.
